Experimental data from patent US12084472B2 (Ardelyx, Inc., priority 2015, dated 2024).

Biological target: T1, human TGR5 (Homo sapiens, UniProt Q8TDU6)
T1 construct: expressed in transfected cells; host or cells: HEK293
T1 sequence (Q8TDU6 1-330): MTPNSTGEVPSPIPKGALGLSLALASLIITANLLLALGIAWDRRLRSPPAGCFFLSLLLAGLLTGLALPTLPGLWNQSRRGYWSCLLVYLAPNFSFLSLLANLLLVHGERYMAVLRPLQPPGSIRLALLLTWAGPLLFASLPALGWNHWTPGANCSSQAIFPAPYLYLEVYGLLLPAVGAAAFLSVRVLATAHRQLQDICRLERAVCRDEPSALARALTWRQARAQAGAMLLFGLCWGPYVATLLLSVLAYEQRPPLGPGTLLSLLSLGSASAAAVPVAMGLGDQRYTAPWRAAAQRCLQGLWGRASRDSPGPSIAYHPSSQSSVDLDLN
Experiment: Cell-based TGR5 assay (cAMP generation, HTRF)
Conditions: HEK293 cells stably transfected with human TGR5; cAMP by HTRF; 30 minutes at 37° C.; read-out: pEC50 Human TGR5 (converted)
Outline: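 Read-out was HTRF detection of cAMP, converted to concentration via a standard curve and fitted (3-parameter logistic) for pEC50 and maximal response. Agonist stimulation used HEK293 cells stably transfected with human TGR5, incubated 30 min at 37° C in IBMX-containing buffer at 0.05 nM to 10 μM compound.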

Compound	EC50
O=C(COCC1CN(S(=O)(=O)c2ccc(Cl)c(COC3(c4cnccc4-c4ccccc4OC4CC4)CC3)c2)C1)NC[C@H](O)[C@@H](O)[C@H](O)[C@H](O)CO [Compound I-456, 2-({1-[4-chloro-3-({1-[4-(2-cyclopropoxyphenyl)pyridin-3-yl]cyclopropoxy}methyl)benzenesulfonyl]azetidin-3-yl}methoxy)-N-[(2S,3R,4R,5R)-2,3,4,5,6-pentahydroxyhexyl]acetamide]	< 100 nM
CC(CCCC(=O)NC[C@H](O)[C@@H](O)[C@H](O)[C@H](O)CO)c1cc(Cl)c(COC2(c3cnccc3-c3ccccc3OC3CC3)CC2)cc1Cl (stereo partly drawn) [Compound I-161, 5-[2,5-dichloro-4-({1-[4-(2-cyclopropoxyphenyl)pyridin-3-yl]cyclopropoxy}methyl)phenyl]-N-[(2S,3R,4R,5R)-2,3,4,5,6-pentahydroxyhexyl]hexanamide]	< 100 nM
Cc1ccc(Cl)cc1COC1(c2cnccc2-c2ccccc2OC2CC2)CC1 [Compound I-55, 3-{1-[(5-chloro-2-methylphenyl)methoxy]cyclopropyl}-4-(2-cyclopropoxyphenyl)pyridine]	< 100 nM
O=C(NCCCCc1cc(Cl)c(COC2(c3cnccc3-c3ccccc3OC3COC3)CC2)cc1Cl)NC[C@H](O)[C@@H](O)[C@H](O)[C@H](O)CO [Compound I-193, 1-(4-{2,5-dichloro-4-[(1-{4-[2-(oxetan-3-yloxy)phenyl]pyridin-3-yl}cyclopropoxy)methyl]phenyl}butyl)-3-[(2S,3R,4R,5R)-2,3,4,5,6-pentahydroxyhexyl]urea]	< 100 nM
O=C([C@@H](O)[C@@H](O)[C@H](O)[C@@H](O)CO)N(CCCO)CCCCc1cc(Cl)c(COC2(c3cnccc3-c3ccccc3OC3CC3)CC2)cc1Cl [Compound I-217, (2S,3S,4R,5S)-N-{4-[2,5-dichloro-4-({1-[4-(2-cyclopropoxyphenyl)pyridin-3-yl]cyclopropoxy}methyl)phenyl]butyl}-2,3,4,5,6-pentahydroxy-N-(3-hydroxypropyl)hexanamide]	< 100 nM
Cc1cc(COC2(c3cnccc3-c3ccccc3OC3COC3)CC2)c(Cl)cc1CCCCNC(=O)N(C)C[C@H](O)[C@@H](O)[C@H](O)[C@H](O)CO [Compound I-191, 1-(4-{5-chloro-2-methyl-4-[(1-{4-[2-(oxetan-3-yloxy)phenyl]pyridin-3-yl}cyclopropoxy)methyl]phenyl}butyl)-3-methyl-3-[(2S,3R,4R,5R)-2,3,4,5,6-pentahydroxyhexyl]urea]	< 100 nM
Fc1ccccc1-c1ccncc1C1(OCc2cc(Cl)ccc2Cl)CC1 [Compound I-50, 3-{1-[(2,5-dichlorophenyl)methoxy]cyclopropyl}-4-(2-fluorophenyl)pyridine]	1260 to 10000 nM
CC(CCCN(CCS(C)(=O)=O)C(=O)[C@@H](O)[C@@H](O)[C@H](O)[C@@H](O)CO)c1ccc(Cl)c(CNC2(c3cnccc3-c3ccccc3OC3CC3)CC2)c1 (stereo partly drawn) [Compound I-289, (2S,3S,4R,5S)-N-(4-{4-chloro-3-[({1-[4-(2-cyclopropoxyphenyl)pyridin-3-yl]cyclopropyl}amino)methyl]phenyl}pentyl)-2,3,4,5,6-pentahydroxy-N-(2-methanesulfonylethyl)hexanamide]	< 100 nM
Cc1ccc(C(C)CCCCNC(=O)[C@@H](O)[C@@H](O)[C@H](O)[C@@H](O)CO)cc1COC1(c2cnccc2-c2ccccc2OC2CC2)CC1 (stereo partly drawn) [Compound I-312, (2S,3S,4R,5S)-N-{5-[3-({1-[4-(2-cyclopropoxyphenyl)pyridin-3-yl]cyclopropoxy}methyl)-4-methylphenyl]hexyl}-2,3,4,5,6-pentahydroxyhexanamide]	< 100 nM
O=C([C@@H](O)[C@@H](O)[C@H](O)[C@@H](O)CO)N(CCCCc1cc(Cl)c(COC2(c3cnccc3-c3ccccc3OC3CC3)CC2)cc1Cl)CC1CC1 [Compound I-211, (2S,3S,4R,5S)-N-(cyclopropylmethyl)-N-{4-[2,5-dichloro-4-({1-[4-(2-cyclopropoxyphenyl)pyridin-3-yl]cyclopropoxy}methyl)phenyl]butyl}-2,3,4,5,6-pentahydroxyhexanamide]	< 100 nM
Cc1cc(COC2(c3cnccc3-c3ccccc3OC3CC3)CC2)c(Cl)cc1CCCCC(=O)NC[C@H](O)[C@@H](O)[C@H](O)[C@H](O)CO [Compound I-145, 5-[5-chloro-4-({1-[4-(2-cyclopropoxyphenyl)pyridin-3-yl]cyclopropoxy}methyl)-2-methylphenyl]-N-[(2S,3R,4R,5R)-2,3,4,5,6-pentahydroxyhexyl]pentanamide]	< 100 nM
Cc1ccc(Cl)cc1CNC1(c2cnccc2-c2ccccc2OC2CC2)CC1 [Compound I-40, N-[(5-chloro-2-methylphenyl)methyl]-1-[4-(2-cyclopropoxyphenyl)pyridin-3-yl]cyclopropan-1-amine]	< 100 nM
Cc1cc(CNC2(c3cnccc3-c3ccccc3OC3CC3)CC2)c(C)cc1CCCCNC(=O)NC[C@H](O)[C@@H](O)[C@H](O)[C@H](O)CO (stereo in doubt) [Compound I-147, 1-(4-{4-[({1-[4-(2-cyclopropoxyphenyl)pyridin-3-yl]cyclopropyl}amino)methyl]-2,5-dimethylphenyl}butyl)-3-[(2S,3R,4R,5R)-2,3,4,5,6-pentahydroxyhexyl]urea]	126 to 1000 nM
O=C(CCCCc1cc(Cl)c(COC2(c3cnccc3-c3ccccc3OC3CC3)CC2)cc1Cl)NCC1O[C@H](CO)[C@@H](O)[C@H](O)[C@H]1O (stereo partly drawn) [Compound I-104, 5-[2,5-dichloro-4-({1-[4-(2-cyclopropoxyphenyl)pyridin-3-yl]cyclopropoxy}methyl)phenyl]-N-{[(3R,4R,5S,6R)-3,4,5-trihydroxy-6-(hydroxymethyl)oxan-2-yl]methyl}pentanamide]	< 100 nM
O=C(NCCCC1(c2ccc(Cl)c(CNC3(c4cnccc4-c4ccccc4OC4CC4)CC3)c2)CC1)NC[C@H](O)[C@@H](O)[C@H](O)[C@H](O)CO [Compound I-385, 1-[3-(1-{4-chloro-3-[({1-[4-(2-cyclopropoxyphenyl)pyridin-3-yl]cyclopropyl}amino)methyl]phenyl}cyclopropyl)propyl]-3-[(2S,3R,4R,5R)-2,3,4,5,6-pentahydroxyhexyl]urea]	< 100 nM

The next lines start with the values.

EC50	Compound
< 100 nM	O=S(=O)(NCC(F)(F)F)c1ccc(Cl)c(COC2(c3cnccc3-c3ccccc3OC3CC3)CC2)c1 [Compound I-772, 4-chloro-3-((1-(4-(2-cyclopropoxyphenyl)pyridin-3-yl)cyclopropoxy)methyl)-N-(2,2,2-trifluoroethyl)benzenesulfonamide]
1260 to 10000 nM	Cc1ccc(SCCCC(=O)NC[C@H](O)[C@@H](O)[C@H](O)[C@H](O)CO)nc1CNC1(c2cnccc2-c2ccccc2OC2CC2)CC1 [Compound I-653, 4-({6-[({1-[4-(2-cyclopropoxyphenyl)pyridin-3-yl]cyclopropyl}amino)methyl]-5-methylpyridin-2-yl}sulfanyl)-N-[(2S,3R,4R,5R)-2,3,4,5,6-pentahydroxyhexyl]butanamide]
< 100 nM	CN(CCCCSc1ccc(Cl)c(COC2(c3cnccc3-c3ccccc3OC3CC3)CC2)c1)C(=O)[C@@H](O)[C@@H](O)[C@H](O)[C@@H](O)CO [Compound I-510, (2S,3S,4R,5S)-N-(4-{[4-chloro-3-({11-[4-(2-cyclopropoxyphenyl)pyridin-3-yl]cyclopropoxy}methyl)phenyl]sulfanyl}butyl)-2,3,4,5,6-pentahydroxy-N-methylhexanamide]
< 100 nM	CCN(CCCCNC(=O)NC[C@H](O)[C@@H](O)[C@H](O)[C@H](O)CO)S(=O)(=O)c1ccc(Cl)c(CNC2(c3cnccc3-c3ccccc3OC3CC3)CC2)c1 [Compound I-473, 1-(4-{N-ethyl4-chloro-3-[({1-[4-(2-cyclopropoxyphenyl)pyridin-3-yl]cyclopropyl}amino)methyl]benzenesulfonamido}butyl)-3-[(2S,3R,4R,5R)-2,3,4,5,6-pentahydroxyhexyl]urea]
< 100 nM	O=C(NCCCCCS(=O)(=O)c1ccc(Cl)c(COC2(c3cnccc3-c3ccccc3OC3CC3)CC2)c1)N[C@@H](CO)[C@@H](O)[C@H](O)[C@H](O)CO [Compound I-643, 1-{5-[4-chloro-3-({1-[4-(2-cyclopropoxyphenyl)pyridin-3-yl]cyclopropoxy}methyl)benzenesulfonyl]pentyl}-3-[(2S,3R,4S,5R)-1,3,4,5,6-pentahydroxyhexan-2-yl]urea]
< 100 nM	CN(CCCCNC(=O)N[C@H](CO)[C@@H](O)[C@H](O)[C@H](O)CO)S(=O)(=O)c1ccc(Cl)c(COC2(c3cnccc3-c3ccccc3OC3CC3)CC2)c1 [Compound I-778]
126 to 1000 nM	Cn1c(C(=O)NC[C@H](O)[C@@H](O)[C@H](O)[C@H](O)CO)cnc1SCc1ccc(Cl)c(COC2(c3cnccc3-c3ccccc3OC3CC3)CC2)c1 [Compound I-758, 2-((4-chloro-3-((1-(4-(2-cyclopropoxyphenyl)pyridin-3-yl)cyclopropoxy)methyl)benzyl)thio)-1-methyl-N-((2S,3R,4R,5R)-2,3,4,5,6-pentahydroxyhexyl)-1H-imidazole-5-carboxamide]
< 100 nM	Cc1ccc(S(=O)(=O)N(C)CCCCNC(=O)N[C@@H](CO)[C@@H](O)[C@H](O)[C@H](O)CO)cc1CNC1(c2cnccc2-c2ccccc2OC2CC2)CC1 [Compound I-478, 1-(4-{N-methyl3-[({1-[4-(2-cyclopropoxyphenyl)pyridin-3-yl]cyclopropyl}amino)methyl]-4-methylbenzenesulfonamido}butyl)-3-[(2S,3R,4S,5R)-1,3,4,5,6-pentahydroxyhexan-2-yl]urea]
